From ChEMBL document CHEMBL2074177, “Antifolate resistance mediated by the multidrug resistance proteins MRP1 and MRP2” (Cancer Res, 1999)

Molecular target: ATP-binding cassette sub-family C member 2 (Homo sapiens, UniProt Q92887)
Experiment: TP_TRANSPORTER: uptake in membrane vesicle from MRP2-expressing 2008 cells
Format: functional, cell membranes

Chain of ATP-binding cassette sub-family C member 2 (Q92887 whole entry): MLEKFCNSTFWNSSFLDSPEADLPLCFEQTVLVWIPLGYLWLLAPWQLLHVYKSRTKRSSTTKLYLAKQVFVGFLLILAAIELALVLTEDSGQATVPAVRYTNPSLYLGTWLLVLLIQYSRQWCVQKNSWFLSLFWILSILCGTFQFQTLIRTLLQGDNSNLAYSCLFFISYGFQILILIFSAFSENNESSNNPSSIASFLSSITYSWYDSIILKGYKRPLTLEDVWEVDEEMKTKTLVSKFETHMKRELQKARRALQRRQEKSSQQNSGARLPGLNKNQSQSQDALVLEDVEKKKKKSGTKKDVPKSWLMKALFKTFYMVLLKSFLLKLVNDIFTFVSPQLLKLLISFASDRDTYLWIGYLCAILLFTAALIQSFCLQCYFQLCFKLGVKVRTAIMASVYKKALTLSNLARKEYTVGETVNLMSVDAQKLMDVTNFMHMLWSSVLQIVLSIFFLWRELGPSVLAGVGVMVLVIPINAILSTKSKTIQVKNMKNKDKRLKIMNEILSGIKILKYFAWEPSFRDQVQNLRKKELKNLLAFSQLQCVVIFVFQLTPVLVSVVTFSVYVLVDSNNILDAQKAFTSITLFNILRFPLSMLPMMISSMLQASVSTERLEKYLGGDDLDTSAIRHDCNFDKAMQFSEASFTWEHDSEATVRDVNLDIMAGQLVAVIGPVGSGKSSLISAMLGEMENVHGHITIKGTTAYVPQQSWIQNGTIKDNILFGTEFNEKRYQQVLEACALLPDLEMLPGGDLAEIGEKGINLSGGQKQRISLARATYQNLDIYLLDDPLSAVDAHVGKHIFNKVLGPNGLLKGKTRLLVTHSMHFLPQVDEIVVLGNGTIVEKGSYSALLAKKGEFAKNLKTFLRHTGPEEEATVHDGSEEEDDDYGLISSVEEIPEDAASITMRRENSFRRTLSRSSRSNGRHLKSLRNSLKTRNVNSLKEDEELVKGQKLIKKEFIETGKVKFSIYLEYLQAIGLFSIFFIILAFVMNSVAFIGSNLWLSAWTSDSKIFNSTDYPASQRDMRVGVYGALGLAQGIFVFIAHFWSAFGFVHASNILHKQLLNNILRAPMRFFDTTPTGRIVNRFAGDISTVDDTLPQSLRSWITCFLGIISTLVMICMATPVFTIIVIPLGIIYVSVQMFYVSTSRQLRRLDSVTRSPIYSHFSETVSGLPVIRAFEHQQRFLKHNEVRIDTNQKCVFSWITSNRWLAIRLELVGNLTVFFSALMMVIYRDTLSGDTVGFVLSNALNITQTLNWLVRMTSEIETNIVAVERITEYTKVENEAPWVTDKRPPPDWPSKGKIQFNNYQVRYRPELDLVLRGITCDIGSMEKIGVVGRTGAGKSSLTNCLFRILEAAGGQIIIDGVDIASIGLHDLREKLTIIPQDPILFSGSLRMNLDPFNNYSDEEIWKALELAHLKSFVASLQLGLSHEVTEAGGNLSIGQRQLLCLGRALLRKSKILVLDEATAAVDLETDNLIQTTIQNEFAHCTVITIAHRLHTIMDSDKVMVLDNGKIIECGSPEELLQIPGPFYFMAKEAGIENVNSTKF

Which Activity does the source give for `CN(Cc1cnc2nc(N)nc(N)c2n1)c1ccc(C(=O)N[C@@H](CCC(=O)O)C(=O)O)cc1` [METHOTREXATE] here?
Its Activity is “substrate [+]”.
